# Patent US12226476B2, “Helper epitope peptide and application thereof” (CHINA PHARMACEUTICAL UNIVERSITY, priority 2018, dated 2025)
# Non-standard residues stand in square brackets, D forms with d. No end group written: not given here. Phe(4-NO2) = N[C@@H](Cc1ccc([N+](=O)[O-])cc1)C(=O)O
# Assays:
# Assay type in all cases: in vivo
# B epitope SEQ ID NO: 43 = experiment: Antibody titer in serum of immunized mice, indirect ELISA; conditions: FIG. 23; compared with the B epitope SEQ ID NO: 43 group and the B epitope SEQ ID NO: 43-PADRE group; mice immunized subcutaneously, 50 μg, Freund's adjuvant
# Method: (§1) The protocol is as follows: • (1) The helper epitope was connected to individual antigens or antigen epitope with the linking peptide to construct multiple fusion antigens. The sequence of the linking peptide is GPSL (i.e. Gly-Pro-Ser-Leu) (SEQ ID NO:51). • (2) The fusion antigens from (1) were emulsified adequately with complete Freund's adjuvant of the same volume. Then to immunize mice via subcutaneous injection with the emulsion at the dose of 50 μg per mouse. The strains of experimental mice including C57, Fvb and Balb/C. After 7 days and 14 days of first immunization, the fusion antigens from (1) were emulsified adequately with incomplete Freund's adjuvant of the same volume and then to immunize mice via subcutaneous injection with the emulsion at the dose of 50 μg per mouse. • (3) There are two detection methods. […] Then the antibody titer is detected by indirect ELISA. […] PBMC (peripheral blood mononuclear cells) are isolated, and the CTL-mediated cytotoxicity is detected by LDH (lactate dehydrogenase) kit. […]
# (§2) Method 1: The whole blood was collected every week after immunization and centrifugated at 6000 rpm for 20 min to obtain the serum for a total of 4 weeks. Antibody titers were detected by indirect ELISA as follows: • (1) Coating: the existing antigen or antigen epitope was diluted to 5 μg/mL with coating solution. […]
# Aβ protein-42 = experiment: as above; conditions: FIG. 24; compared with the Aβ protein-42 group and the Aβ protein-PADRE group; mice immunized subcutaneously, 50 μg, Freund's adjuvant
# Method: as §1, §2
# target cells = experiment: CTL-mediated cytotoxicity of PBMC from spleen of immunized mice, LDH kit; conditions: one week after last immunization
# Method: The protocol is as follows: • (1) The helper epitope was connected to individual antigens or antigen epitope with the linking peptide to construct multiple fusion antigens. The sequence of the linking peptide is GPSL (i.e. Gly-Pro-Ser-Leu) (SEQ ID NO:51). • (2) The fusion antigens from (1) were emulsified adequately with complete Freund's adjuvant of the same volume. Then to immunize mice via subcutaneous injection with the emulsion at the dose of 50 μg per mouse. The strains of experimental mice including C57, Fvb and Balb/C. After 7 days and 14 days of first immunization, the fusion antigens from (1) were emulsified adequately with incomplete Freund's adjuvant of the same volume and then to immunize mice via subcutaneous injection with the emulsion at the dose of 50 μg per mouse. • (3) There are two detection methods. One is to obtain the orbital blood of immunized mice on 7, 14, 21 and 28 day respectively, centrifuge the whole blood to get the serum. Then the antibody titer is detected by indirect ELISA. The other one is: one week after the last immunization, the mice are killed to get the spleen. PBMC (peripheral blood mononuclear cells) are isolated, and the CTL-mediated cytotoxicity is detected by LDH (lactate dehydrogenase) kit.
# The first step was to construct the fusion antigen. […]
# Method 2: one week after last immunization, mice were sacrificed, and spleen was taken; then PBMC (peripheral blood mononuclear cells) were isolated, and the CTL-mediated cytotoxicity was detected by LDH (lactate dehydrogenase) kit. • (1) Setting control: The control group was divided into effector cell spontaneous release group, experimental group, target cell spontaneous release group, target cell maximum release group, volume correction control group and background control group; • (2) The cells were centrifuged at 250 g for 4 minutes to make the effector cells fully contact with the target cells; • (3) The detection plate was incubated with 5% CO2 at 37° C. for 4 hours; 10 μL of Lysis buffer was added to every 100 μL medium (10×) in the target cell maximum release group. […]
sequence,measurement,setting,value
FLPESFDGDPASNTAPLQPEGPSLAKFXAAWTLKAAA (FLPESFDGDPASNTAPLQPEGPSLAKF[Phe(4-NO2)]AAWTLKAAA) [B epitope+3 pPhe-PADRE],antibody titers,B epitope SEQ ID NO: 43,significant increase
LVFFAEDVGSNKGAIIGLMVGGVVIAGPSLAKFVAXWTLKAAA (LVFFAEDVGSNKGAIIGLMVGGVVIAGPSLAKFVA[Phe(4-NO2)]WTLKAAA) [A-beta protein-6pPhe-PADRE],antibody titers,Aβ protein-42,significant increase
TGYLYISAGPSLAXFVAAWTLKAAA (TGYLYISAGPSLA[Phe(4-NO2)]FVAAWTLKAAA) [epitope 2+2p-PADRE],CTL-mediated cytotoxicity,"target cells; FIG. 21, compared with the epitope SEQ ID NO:41 group and the epitope SEQ ID NO: 41-PADre group",significantly enhanced
VLDNGDPLGPSLTGYLYISAGPSLAKXVAAWTLKAAA (VLDNGDPLGPSLTGYLYISAGPSLAK[Phe(4-NO2)]VAAWTLKAAA) [epitope 3+3p-PADRE],CTL-mediated cytotoxicity,"target cells; FIG. 22, compared with the epitope SEQ ID NO:42 group and the epitope SEQ ID NO: 42-PADre group",significantly enhanced
VLDNGDPLGPSLXKFVAAWTLKAAA (VLDNGDPLGPSL[Phe(4-NO2)]KFVAAWTLKAAA) [epitope 1+1p-PADRE],CTL-mediated cytotoxicity,"target cells; FIG. 20, compared with the epitope SEQ ID NO:40 group and the epitope SEQ ID NO: 40-PADre group",significantly enhanced
